Data on four compounds can be found in US12338256B2, “Aza-tetracyclic oxazepine compounds and uses thereof” (Genentech, Inc., priority 2022, dated 2025).

As usually defined, the IC50 is the concentration that gives 50% inhibition.

Test [1] concerns the target T1, KRAS WT (Homo sapiens, UniProt P01116). Kind of test: KRAS WI Biochemical Assay, BODIPY-GDP Exchange TR-FRET (Example 501; 3 nM KRAS WT, 3 nM SOS1, 60-minute incubation). As to the method: Example 501: KRAS WI Biochemical Assay, BODIPY-GDP Exchange TR-FRET. Biochemical compound potencies are assessed by evaluating inhibition of SOS1-mediated nucleotide exchange in KRAS WT. In this assay, the SOS1-promoted exchange of fluorescently-labeled GDP (BOPIDY-GDP) is monitored by time-resolved fluorescence resonance energy transfer (TR-FRET). Compounds solubilized in DMSO are dispensed as concentration series into 384-well white assay plates, and 5 uL assay buffer (20 mM HEPES, pH 7.5, 50 mM NaCl, 10 mM MgCl2, 0.01% Tween-20 and 1 mM dithiothreitol) is added just prior to the start of the assay. A preformed complex of 3 nM biotin-tagged recombinant human KRAS WT and 0.3 nM terbium-labeled streptavidin (CisBIO) prepared in 5 uL/well assay buffer is added and allowed to incubate for 10-minutes at room temperature. The reaction is initiated with the addition of 5 uL 3 nM recombinant human SOS1 and 300 nM BODIPY-GDP in assay buffer. After a 60-minute incubation, the fluorescence is measured with excitation at 337 nm and emission at 490 and 520 nm. The TR-FRET ratio is determined as the fluorescence at 520 nm divided by the fluorescence at 490 nm multiplied by 10,000. The results are normalized to percent inhibition based on control samples: DMSO (0% inhibition) and control compound at a concentration that inhibits completely (100% inhibition). The normalized TR-FRET results are plotted against compound concentration, and the data are fit to a 4-parameter Hill equation to determine the IC50 values.
(In TR-FRET formats the signal depends on donor and acceptor labels being close together.)

Another test concerns the target KRAS G12D (Homo sapiens, UniProt P01116, G12D). Kind of test: KRAS G12D LoEnz Biochemical Assay, BODIPY-GDP Exchange TR-FRET (Example 500). As to conditions: read-out: KRas (G12D) GDP HTRF IC50. As to the method: Example 500: KRAS G12D LoEnz Biochemical Assay, BODIPY-GDP Exchange TR-FRET. Biochemical compound potencies are assessed by evaluating inhibition of SOS1-mediated nucleotide exchange in KRAS G12D. In this assay, the SOS1-promoted exchange of fluorescently-labeled GDP (BOPIDY-GDP) is monitored by time-resolved fluorescence resonance energy transfer (TR-FRET). Compounds solubilized in DMSO are dispensed as concentration series into 384-well white assay plates. A preformed complex of biotin-tagged recombinant human KRAS (0.06 nM mutant G12D) and 0.06 nM terbium-labeled streptavidin (CisBIO) prepared in 10 uL/well assay buffer (20 mM HEPES, pH 7.5, 50 mM NaCl, 10 mM MgCl2, 0.01% Tween-20 and 1 mM dithiothreitol) is added and allowed to incubate for 10-minutes at room temperature. The reaction is initiated with the addition of 5 uL 300 nM recombinant human SOS1 and 300 nM BODIPY-GDP in assay buffer. After a 120-minute incubation, the fluorescence is measured with excitation at 337 nm and emission at 490 and 520 nm. The TR-FRET ratio is determined as the fluorescence at 520 nm divided by the fluorescence at 490 nm multiplied by 10,000. The results are normalized to percent inhibition based on control samples: DMSO (0% inhibition) and control compound at a concentration that inhibits completely (100% inhibition). The normalized TR-FRET results are plotted against compound concentration, and the data are fit to a 4-parameter Hill equation to determine the IC50 values.

The test system of test [2] is H1975 (KRAS wild type human lung adenocarcinoma cell line). Kind of test: KRAS 3D-Cell Proliferation Assay, H1975 (Example 503). It counts as cell-based. As to conditions: Homo sapiens, NCI-H1975, 168 h, H1975 3D culture, 7 days, CellTiter-Glo 3D; read-out: Prolif H1975 3D ATP IC50. The procedure, abridged: (§1)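 IC50s come from a 4-parameter Hill fit of luminescence (CellTiter-Glo 3D) normalized between DMSO (0%) and 1 μM staurosporine (100%). Cells in low-attachment 3D culture, RPMI-1640 with 10% FBS, received serial compound dilutions (0.3% DMSO) after overnight and were incubated 7 days at 37 °C.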

In test [3] the test system is HPAC (homozygous mutant KRAS G12D human pancreatic cell line). The test can be described thus: KRAS 3D-Cell Proliferation Assay, HPAC (Example 503). As to conditions: Homo sapiens, HPAC, 168 h, HPAC 3D culture, 7 days, CellTiter-Glo 3D; read-out: Prolif HPAC 3D ATP IC50. It counts as cell-based. An outline of the steps: as §1
Test [4] deals with PC-9 (KRAS wild type human lung adenocarcinoma cell line). The test can be described thus: KRAS 3D-Cell Proliferation Assay, PC-9 (Example 503). As to conditions: 168 h, PC-9 3D culture, 7 days, CellTiter-Glo 3D, read-out: Prolif PC9 3D ATP IC50. It counts as cell-based. The procedure, abridged: as §1
Background: Cellular ATP, detected with luciferase, serves as a proxy for viable cell number.

For test [5], the system named is AsPC-1 (homozygous mutant KRAS G12D human pancreatic cell line). Kind of test: KRAS 3D-Cell Proliferation Assay, AsPC-1 (Example 503). It counts as cell-based. As to conditions: Homo sapiens, ASPC1, 168 h, AsPC-1 3D culture, 7 days, CellTiter-Glo 3D; read-out: Prolif AsPC-1 3D ATP IC50. An outline of the steps: as §1
The target in test [6] is T1, KRAS WT. Kind of test: KRAS WT Biochemical Assay, BODIPY-GDP Exchange TR-FRET (Example 502; 0.06 nM KRAS WT, 15 nM GDP, 300 nM SOS1, 120-minute incubation). As to conditions: SOS1-mediated BODIPY-GDP exchange, read-out: KRas HTRF IC50. As to the method: Example 502: KRAS WT Biochemical Assay, BODIPY-GDP Exchange TR-FRET. Biochemical compound potencies are assessed by evaluating inhibition of SOS1-mediated nucleotide exchange in KRAS WT. In this assay, the SOS1-promoted exchange of fluorescently-labeled GDP (BOPIDY-GDP) is monitored by time-resolved fluorescence resonance energy transfer (TR-FRET). Compounds solubilized in DMSO are dispensed as concentration series into 384-well white assay plates. A preformed complex of 0.06 nM biotin-tagged recombinant human KRAS WT, 15 nM GDP and 0.06 nM terbium-labeled streptavidin (CisBIO) prepared in 10 uL/well assay buffer (20 mM HEPES, pH 7.5, 50 mM NaCl, 10 mM MgCl2, 0.01% Tween-20 and 1 mM dithiothreitol) is added and allowed to incubate for 10-minutes at room temperature. The reaction is initiated with the addition of 5 uL 300 nM recombinant human SOS1 and 300 nM BODIPY-GDP in assay buffer. After a 120-minute incubation, the fluorescence is measured with excitation at 337 nm and emission at 490 and 520 nm. The TR-FRET ratio is determined as the fluorescence at 520 nm divided by the fluorescence at 490 nm multiplied by 10,000. The results are normalized to percent inhibition based on control samples: DMSO (0% inhibition) and control compound at a concentration that inhibits completely (100% inhibition). […]

Like-named read-outs stand apart in the source and are kept apart here.

Sequence of KRAS G12D (P01116 1-188 isoform P01116-2 G12D): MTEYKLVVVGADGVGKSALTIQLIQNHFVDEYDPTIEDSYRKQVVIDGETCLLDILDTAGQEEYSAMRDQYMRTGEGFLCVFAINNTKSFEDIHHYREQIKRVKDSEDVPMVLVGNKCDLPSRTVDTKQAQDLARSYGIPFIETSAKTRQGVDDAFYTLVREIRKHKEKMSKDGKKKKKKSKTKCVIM
T1 sequence (P01116 1-188 isoform P01116-2): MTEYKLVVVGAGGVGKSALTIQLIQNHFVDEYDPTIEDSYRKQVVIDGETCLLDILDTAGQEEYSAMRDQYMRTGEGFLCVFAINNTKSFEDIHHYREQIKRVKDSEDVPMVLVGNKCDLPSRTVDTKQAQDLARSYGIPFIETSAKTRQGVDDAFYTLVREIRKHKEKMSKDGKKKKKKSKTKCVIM

As for `C[C@@H]1Oc2nc(-c3cc(O)cc4cccc(F)c34)c(F)c3nc(OC[C@@]45CCCN4C[C@H](F)C5)nc(c23)N2C[C@H]3CC[C@H](N3)[C@@H]12` [Compound 9, 5-fluoro-4-((5S,5aS,6S,9R)-1-fluoro-12-(((2R,7aS)-2-fluorotetrahydro-1H-pyrrolizin-7a(5H)-yl)methoxy)-5-methyl-5a,6,7,8,9,10-hexahydro-5H-4-oxa-3,10a,11,13,14-pentaaza-6,9-methanonaphtho[1,8-ab]heptalen-2-yl)naphthalen-2-ol], the IC50 was determined as 6.51 nM at KRAS WT [1] (SOS1-mediated BODIPY-GDP exchange, read-out: KRas(wt) GDP HTRF IC50); 0.057 nM on KRAS G12D (BODIPY-GDP exchange); 2020 nM in test [2]; 11.6 nM in test [3]; 7790 nM in test [4]; 19.3 nM in test [5].

For the compound `C[C@@H]1Oc2nc(-c3cc(N)cc(F)c3C(F)(F)F)c(F)c3nc(OC[C@H]4CC[C@@H]5COC(C)(C)CN45)nc(c23)N2C[C@H]3CC[C@H](N3)[C@@H]12` (relative stereo) [Compound 125, 3-((5S,5aS,6S,9R)-12-((3,3-dimethylhexahydro-1H-pyrrolo[2,1-c][1,4]oxazin-6-yl)methoxy)-1-fluoro-5-methyl-5a,6,7,8,9,10-hexahydro-5H-4-oxa-3,10a,11,13,14-pentaaza-6,9-methanonaphtho[1,8-ab]heptalen-2-yl)-5-fluoro-4-(trifluoromethyl)aniline], the IC50 at KRAS G12D (BODIPY-GDP exchange) was determined as 0.23 nM; in test [2] it was 1220 nM; in test [3], 2.14 nM; in test [5], 10.2 nM; on KRAS WT [6], 14.7 nM.

In the case of `Cc1cc(N)c(Cl)c(-c2nc3c4c(nc(OC[C@@]56CCCN5C[C@H](F)C6)nc4c2F)N2C[C@H]4CC[C@H](N4)[C@H]2[C@H](C)O3)c1C(F)(F)F` (single isomer, unassigned) [Compound 199], the IC50 on KRAS WT [1] (SOS1-mediated BODIPY-GDP exchange TR-FRET, read-out: KRas HTRF IC50) amounted to 9.63 nM; at KRAS G12D (SOS1-mediated BODIPY-GDP exchange TR-FRET), 0.17 nM; in test [2], 1050 nM; in test [3] it was 0.98 nM; in test [5] it was 4.06 nM.

For `Cc1c(F)c(N)cc(-c2nc3c4c(nc(OC[C@H]5CC[C@@H]6C(=O)N(C)CCN56)nc4c2F)N2C[C@H]4CC[C@H](N4)[C@H]2[C@H](C)O3)c1C(F)(F)F` (relative stereo) [Compound 123, 6-((((5S,5aS,6S,9R)-2-(5-Amino-4-fluoro-3-methyl-2-(trifluoromethyl)phenyl)-1-fluoro-5-methyl-5a,6,7,8,9,10-hexahydro-5H-4-oxa-3,10a,11,13,14-pentaaza-6,9-methanonaphtho[1,8-ab]heptalen-12-yl)oxy)methyl)-2-methylhexahydropyrrolo[1,2-a]pyrazin-1(2H)-one], the half-inhibitory concentration (IC50) was 0.7 nM at KRAS G12D (BODIPY-GDP exchange), 13900 nM in test [2], 63 nM in test [3] and 181 nM at KRAS WT [6].
